In patent US11286268B1, “EIF4E-inhibiting compounds and methods” (EFFECTOR THERAPEUTICS, INC., priority 2019, dated 2022):
pIC50: −log10 of the molar value. Like-named read-outs stand apart in the source and are kept apart here.

Biological target: recombinant eIF4E (Homo sapiens (Human), UniProt P06730)
Experiment: Fluorescence polarization competition assay for eIF4E binding potency
Procedure, shortened: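 Competitive displacement format: compounds compete with a fluorescent m7GDP tracer (20 nM) for 75 nM recombinant eIF4E. Incubation is 30 min at room temperature, protected from light, with 1% DMSO. Polarization read gives IC50 over eight 3-fold concentrations.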

[1] = fluorescence polarization competition, 75 nM recombinant eIF4E, 20 nM EDA-m7GDP-ATTO-550, IC50 class, read-out: elF4E FP
[2] = inhibition of eIF4E/EDA-m7GDP-ATTO-550 binding by 50%, Table 4B calculated values, read-out: IC50

Sequence of recombinant eIF4E (P06730 whole entry): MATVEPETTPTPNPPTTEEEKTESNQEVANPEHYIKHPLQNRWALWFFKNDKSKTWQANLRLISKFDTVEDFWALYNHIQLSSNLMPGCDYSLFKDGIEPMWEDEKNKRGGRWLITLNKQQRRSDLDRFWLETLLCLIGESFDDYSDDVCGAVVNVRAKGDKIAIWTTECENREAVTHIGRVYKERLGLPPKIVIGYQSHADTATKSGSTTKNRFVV

Row | pIC50 [1] | pIC50 [2] | Structure (SMILES)
1 | 6.00 to 7.30 | 7.05 | CSC1CN(c2c(Cl)cc3nc(C)n(CCOc4ccc(Cl)cc4-c4cc(C)nc5c(C(=O)O)csc45)c(=O)c3c2C#N)C1 [compound 704]
2 | > 7.30 | 7.72 | Cc1nc2cc(C(F)(F)F)c(N3CCN(C)CC3)c(C#N)c2c(=O)n1CCOc1ccc(Cl)cc1-c1ccnc2ccsc12 [compound 705]
3 | 6.00 to 7.30 | 7.06 | Cc1cc(-c2cc(Cl)ccc2OCCn2c(C)nc3cc(C(F)(F)F)c(C4CCCN4C)c(C#N)c3c2=O)c2scc(C(=O)O)c2n1 (centres unmarked) [compound 708]
4 | > 7.30 | 7.50 | Cc1cc(-c2cc(Cl)ccc2OCCn2c(C)nc3cc(C(C)N(C)C)c(OC(F)F)c(C#N)c3c2=O)c2scc(C(=O)O)c2n1 (centres unmarked) [compound 710]
5 | 6.00 to 7.30 | 7.11 | Cc1cc(-c2cc(Cl)ccc2OCCn2c(C)nc3cc(C(F)(F)F)c(C(C)N(C)C)c(C#N)c3c2=O)c2scc(C(=O)O)c2n1 (centres unmarked) [compound 711]
6 | > 7.30 | 7.71 | Cc1cc(-c2cc(Cl)ccc2OCCn2c(C)nc3cc4c(c(C#N)c3c2=O)CN(C)C4)c2scc(C(=O)O)c2n1 [compound 712]
7 | > 7.30 | 7.33 | Cc1cc(-c2cc(Cl)ccc2OCCn2c(C)nc3cc(C(F)(F)F)c(CC4CCNCC4)c(C#N)c3c2=O)c2scc(C(=O)O)c2n1 [compound 714]
8 | > 7.30 | 7.55 | Cc1ccc(-c2cc(Cl)ccc2OCCn2c(C)nc3cc(C(F)(F)F)c(CN4CCN(C)CC4)c(C#N)c3c2=O)c2scc(C(=O)O)c12 [compound 719]
9 | > 7.30 | 7.69 | COc1ccc(-c2cc(Cl)ccc2OCCn2c(C)nc3c(C)ncc(C#N)c3c2=O)c2scc(C(=O)O)c12 [compound 721]
10 | > 7.30 | 7.42 | Cc1ncc(C#N)c2c(=O)n(CCOc3ccc(Cl)cc3-c3ccc(C)c4c(C(=O)O)csc34)c(C)nc12 [compound 722]
11 | > 7.30 | 7.54 | Cc1ncc(C#N)c2c(=O)n(CCOc3ccc(Cl)cc3-c3ccc(Cl)c4c(C(=O)O)csc34)c(C)nc12 [compound 723]
12 | > 7.30 | 7.42 | Cc1cc(-c2cc(Cl)ccc2OCCn2c(C)nc3cc(CF)c(C)c(C#N)c3c2=O)c2scc(C(=O)O)c2n1 [compound 724]
13 | > 7.30 | 7.42 | Cc1ccc(-c2cc(Cl)ccc2OCCn2c(C)nc3c(N(C)C)ncc(C#N)c3c2=O)c2scc(C(=O)O)c12 [compound 725]
14 | > 7.30 | 7.53 | COCc1ncc(C#N)c2c(=O)n(CCOc3ccc(Cl)cc3-c3ccc(C)c4c(C(=O)O)csc34)c(C)nc12 [compound 727]
15 | < 6.00 | 5.76 | Cc1cc(-c2cc(Cl)ccc2OCCn2c(C)nc3c(C)ncc(C#N)c3c2=O)c2scc(C(O)C(F)(F)F)c2n1 (centres unmarked) [compound 733]
16 | > 7.30 | 7.91 | Cc1cc(-c2cc(Cl)ccc2OCCn2c(C)nc3c(C)nc(-c4ccccc4)c(C#N)c3c2=O)c2scc(C(=O)O)c2n1 [compound 737]
17 | > 7.30 | 7.71 | Cc1cc(-c2cc(Cl)ccc2OCCn2c(C)nc3cc(C(F)(F)F)c(CN4CCN(C(C)(C)C)CC4)c(C#N)c3c2=O)c2scc(C(=O)O)c2n1 [compound 738]
18 | > 7.30 | 7.51 | Cc1cc(-c2cc(Cl)ccc2OCCn2c(C)nc3cc(C(F)(F)F)c(CN4CCN(CC(F)F)CC4)c(C#N)c3c2=O)c2scc(C(=O)O)c2n1 [compound 739]
19 | > 7.30 | 7.82 | Cc1cc(-c2cc(Cl)ccc2OCCn2c(C)nc3cc(Cl)c(N4CCN(C)CC4)c(C#N)c3c2=O)c2sc(C)c(C(=O)O)c2n1 [compound 741]
20 | 6.00 to 7.30 | 6.73 | Cc1ccc(-c2cc(Cl)ccc2OCCn2c(C)nc3c(C#N)nc(-c4ccccn4)c(C)c3c2=O)c2scc(C(=O)O)c12 [compound 743]
21 | > 7.30 | 7.72 | CCc1cc(-c2cc(Cl)ccc2OCCn2c(C)nc3cc(C(F)(F)F)c(-c4ccccn4)c(C#N)c3c2=O)c2scc(C(=O)O)c2n1 [compound 747]
22 | > 7.30 | 7.76 | Cc1c(C(F)(F)F)cc2nc(C)n(CC#Cc3ccc(Cl)cc3-c3cn(C)c(=O)c4c(C(=O)O)csc34)c(=O)c2c1C#N [compound 754]
23 | > 7.30 | 7.36 | Cc1nc2cnc(C3CC3)c(C#N)c2c(=O)n1CCOc1ccc(Cl)cc1-n1cnc2c(C(=O)O)cccc21 [compound 756]
24 | > 7.30 | 7.88 | Cc1cc(-c2cc(Cl)ccc2OCCn2c(C)nc3cc(Cl)c(-c4cccc(C(F)F)n4)c(C#N)c3c2=O)c2scc(C(=O)O)c2n1 [compound 758]
25 | 6.00 to 7.30 | 7.28 | Cc1cc(-c2cc(Cl)ccc2OCCn2c(C)nc3cc(-c4cccnc4)c(C)c(C#N)c3c2=O)c2scc(C(=O)O)c2n1 [compound 759]
26 | > 7.30 | 7.47 | Cc1ccc(-c2cc(Cl)ccc2OCCn2c(C)nc3cnc(-c4ccncc4)c(C#N)c3c2=O)c2scc(C(=O)O)c12 [compound 762]

The remaining lines, values behind:

Row | Structure (SMILES) | pIC50 [1] | pIC50 [2]
27 | Cc1cc(-c2cc(Cl)ccc2OCCn2c(C)nc3cc(Cl)c(N4CC(S(C)(=O)=O)C4)c(C#N)c3c2=O)c2scc(C(=O)O)c2n1 [compound 702] | > 7.30 | 7.90
28 | Cc1cc(-c2cc(Cl)ccc2OCCn2c(C)nc3cc(Cl)c(N4CC(C)(CO)C4)c(C#N)c3c2=O)c2scc(C(=O)O)c2n1 [compound 703] | > 7.30 | 8.50
29 | Cc1ncc(F)cc1-c1c(C(F)(F)F)cc2nc(C)n(CCOc3ccc(Cl)cc3-c3ccnc4ccsc34)c(=O)c2c1C#N [compound 706] | 6.00 to 7.30 | –
30 | Cc1nc2cnc(N3CCN(C)CC3)c(C#N)c2c(=O)n1CCOc1ccc(Cl)cc1-c1ccnc2c(C(=O)O)csc12 [compound 707] | > 7.30 | 7.75
31 | Cc1cc(-c2cc(Cl)ccc2OCCn2c(C)nc3cc(C(F)(F)F)c(CCCN(C)C)c(C#N)c3c2=O)c2scc(C(=O)O)c2n1 [compound 709] | 6.00 to 7.30 | 7.25
32 | Cc1cc(-c2cc(Cl)ccc2OCCn2c(C)nc3cc(C(F)(F)F)c(CC4CCN(C)CC4)c(C#N)c3c2=O)c2scc(C(=O)O)c2n1 [compound 713] | > 7.30 | 7.50
33 | Cc1cc(-c2cc(Cl)ccc2OCCn2c(C)nc3cc(C)c(CN4CCN(C)CC4)c(C#N)c3c2=O)c2scc(C(=O)O)c2n1 [compound 718] | > 7.30 | 7.70
34 | Cc1nc2cc(Cl)c3c(cnn3C)c2c(=O)n1CCOc1ccc(Cl)cc1-c1ccnc2c(C(=O)O)csc12 [compound 720] | 6.00 to 7.30 | 6.70
35 | COc1ncc(C#N)c2c(=O)n(CCOc3ccc(Cl)cc3-c3ccc(C)c4c(C(=O)O)csc34)c(C)nc12 [compound 726] | 6.00 to 7.30 | 7.28
36 | Cc1cc(-c2cc(Cl)ccc2OCCn2c(C)nc3c(C)nc(C(F)F)c(C#N)c3c2=O)c2scc(C(=O)O)c2n1 [compound 728] | > 7.30 | 7.51
37 | Cc1ccc(-c2cc(Cl)ccc2OCCn2c(C)nc3c(C#N)nc(-c4cccnc4)c(C)c3c2=O)c2scc(C(=O)O)c12 [compound 729] | 6.00 to 7.30 | 7.03
38 | Cc1cc(-c2cc(Cl)ccc2OCCn2c(C)nc3c(C)nc(C(F)(F)F)c(C#N)c3c2=O)c2scc(C(=O)O)c2n1 [compound 730] | 6.00 to 7.30 | 7.29
39 | Cc1cc(-c2cc(Cl)ccc2OCCn2c(C)nc3c(C)ncc(C#N)c3c2=O)c2scc(C(=O)NS(C)(=O)=O)c2n1 [compound 731] | > 7.30 | 8.22
40 | Cc1cc(-c2cc(Cl)ccc2OCCn2c(C)nc3c(C)ncc(C#N)c3c2=O)c2scc(C(O)(O)C(F)(F)F)c2n1 [compound 732] | 6.00 to 7.30 | 6.06
41 | Cc1cc(-c2cc(Cl)ccc2OCCn2c(C)nc3cc(C(F)(F)F)c(-c4cccnc4C)c(C#N)c3c2=O)c2scc(C(=O)O)c2n1 [compound 735] | 6.00 to 7.30 | 7.24
42 | Cc1cc(-c2cc(Cl)ccc2OCCn2c(C)nc3cc(C(F)(F)F)c(-c4cnccc4C)c(C#N)c3c2=O)c2scc(C(=O)O)c2n1 [compound 736] | > 7.30 | 7.77
43 | Cc1cc(-c2cc(Cl)ccc2OCCn2c(C)nc3cc(C(F)(F)F)c(CN4CC5CCC(C4)N5C)c(C#N)c3c2=O)c2scc(C(=O)O)c2n1 [compound 740] | > 7.30 | 7.41
44 | Cc1cc(-c2cc(Cl)ccc2OCCn2c(C)nc3c(C)nc(C4CC4)c(C#N)c3c2=O)c2scc(C(=O)O)c2n1 [compound 742] | > 7.30 | 7.49
45 | Cc1cc(-c2cc(Cl)ccc2OCCn2c(C)nc3cc4c(c(C#N)c3c2=O)CCC4)c2scc(C(=O)O)c2n1 [compound 748] | > 7.30 | 7.79
46 | Cc1cc(-c2cc(Cl)ccc2OCCn2c(C)nc3c(C)ncc(C#N)c3c2=O)c2scc(C(O)(C(F)(F)F)C(F)(F)F)c2n1 [compound 749] | < 6.00 | < 4.00
47 | Cc1cc(-c2cc(Cl)ccc2OCCn2c(C)nc3cc(C(F)(F)F)c(-c4ncccc4F)c(C#N)c3c2=O)c2scc(C(=O)O)c2n1 [compound 751] | 6.00 to 7.30 | 7.16
48 | Cc1cc(-c2cc(Cl)ccc2OCCn2c(C)nc3cc(Cl)c(N4CCC4)c(C#N)c3c2=O)c2scc(C(=O)O)c2n1 [compound 752] | > 7.30 | 7.56
49 | Cc1c(C(F)(F)F)cc2nc(C)n(CCOc3ccc(Cl)cc3-c3cn(C)c(=O)c4c(C(=O)O)csc34)c(=O)c2c1C#N [compound 753] | > 7.30 | 7.86
50 | CSc1c(-c2cc(Cl)ccc2OCCn2c(C)nc3cnc(C4CC4)c(C#N)c3c2=O)ccnc1C(=O)O [compound 757] | 6.00 to 7.30 | 6.86
51 | Cc1cc(-c2cc(Cl)ccc2OCCn2c(C)nc3nc(C(F)(F)F)c(C)nc3c2=O)c2scc(C(=O)O)c2n1 [compound 760] | > 7.30 | 8.19
